Experiments:
Assay type in all cases: biochemical
[1] = molecular target: T1, recombinant human baculoviral VEGFR2 cyctoplasmic domain (Homo sapiens, UniProt P35968); test: VEGFR2 kinase inhibition assay (ELISA-based, time-resolved fluorescence); conditions: 1 uM compound, 30 μM ATP; for inhibition at 1 µM: read-out: VEGFR-2 kinase % inhibition @ 1 uM
T1 construct: recombinant human baculoviral VEGFR2 cyctoplasmic domain; host or cells: baculovirus expression system
Protocol: Inhibition of Vascular Endothelial Growth Factor Receptor-2 Kinase Activity
Assay were performed as described for trkA kinase below. The 96-well microtiter plate (FluoroNUNC Maxisorp) was coated with 40 μg/ml recombinant human phospholipase C-γ1/glutathione S-transferase fusion protein. Inhibition studies were performed in 100 μl assay mixtures containing 50 mM HEPES, pH 7.4, 30 μM ATP, 10 mM MnCl2, 0.1% BSA, 2% DMSO, and 1 μM of test compound. The reaction was initiated by adding prephosphorylated recombinant human baculoviral VEGFR2 cyctoplasmic domain. The reaction was allowed to proceed for 15 minutes at 37° C. The detection antibody, eurpium-labeled anti-phosphotyrosine antibody (Wallac #CR04-100), was added at 1:5000 dilution in block buffer (3% BSA in TBST).

[2] = molecular target: T2, baculovirus-expressed human trkA cytoplasmic domain (Homo sapiens, UniProt P04629); test: trkA tyrosine kinase inhibition assay (ELISA-based); conditions: 1 uM compound; 40 μM ATP
T2 construct: baculovirus-expressed human trkA cytoplasmic domain; host or cells: baculovirus expression system
Protocol: Inhibition of trkA Tyrosine Kinase Activity
Selected heterocyclic substituted pyrazolones were tested for their ability to inhibit the kinase activity of baculovirus-expressed human trkA cytoplasmic domain using an ELISA-based assay as previously described (Angeles et al., Anal. Biochem. 236: 49-55, 1996). Briefly, a 96-well microtiter plate was coated with substrate solution (recombinant human phospholipase C-γl/glutathione S-transferase fusion protein (Rotin et al., EMBO J., 11: 559-567, 1992). Inhibition studies were performed in 100 μl assay mixtures containing 50 mM Hepes, pH 7.4, 40 μM ATP, 10 mM MnCl2, 0.1% BSA, 2% DMSO, and various concentrations of inhibitor. The reaction was initiated by addition of trkA kinase and allowed to proceed for 15 minutes at 37° C. An antibody to phosphotyrosine (UBI) was then added, followed by a secondary enzyme-conjugated antibody, alkaline phosphatase-labelled goat anti-mouse IgG (Bio-Rad). The activity of the bound enzyme was measured via an amplified detection system (Gibco-BRL). Inhibition data were analyzed using the sigmoidal dose-response (variable slope) equation in GraphPad Prism.

baculoviral GST-MLK1KD = molecular target: T3, baculoviral GST-MLK1KD (Homo sapiens, UniProt P80192); test: Mixed Lineage Kinase-1 inhibition assay (Millipore Multiscreen TCA in-plate, 32P); conditions: for MLK-1 Kinase % inhibition @ 1 uM: 1 uM compound, 60 μM ATP; for inhibition at 1 µM: read-out: MLK-1 Kinase % inhibition @ 1 uM
T3 construct: 1 μg/ml of baculoviral GST-MLK1KD; GST (N); host or cells: baculovirus expression system
Protocol: Inhibition of Mixed Lineage Kinase-1 Activity
The kinase activity of MLK1 was assessed using the Millipore Multiscreen TCA “in-plate” format as described for protein kinase C (Pitt & Lee, J. Biomol. Screening, 1: 47-51, 1996). Briefly, each 50-μl assay mixture contained 20 mM Hepes, pH 7.0, 1 mM EGTA, 10 mM MgCl2, 1 mM DTT, 25 mM β-glycerophosphate, 60 μM ATP, 0.25 μCi [γ-^32P]ATP, 0.1% BSA, 500 μg/ml myelin basic protein (UBI #13-104), 2% DMSO, 1 μM of test compound, and 1 μg/ml of baculoviral GST-MLK1KD. Samples were incubated for 15 min at 37° C. The reaction was stopped by adding ice cold 50% TCA and the protein were allowed to precipitate for 30 min at 4° C. The plates were then washed with ice cold 25% TCA. Supermix scintillation cocktail was added, and the plates were allowed to equilibrate for 1-2 hours prior to counting using the Wallac MicroBeta 1450 PLUS scintillation counter.

T1 sequence (P35968 786-1356 limits assumed): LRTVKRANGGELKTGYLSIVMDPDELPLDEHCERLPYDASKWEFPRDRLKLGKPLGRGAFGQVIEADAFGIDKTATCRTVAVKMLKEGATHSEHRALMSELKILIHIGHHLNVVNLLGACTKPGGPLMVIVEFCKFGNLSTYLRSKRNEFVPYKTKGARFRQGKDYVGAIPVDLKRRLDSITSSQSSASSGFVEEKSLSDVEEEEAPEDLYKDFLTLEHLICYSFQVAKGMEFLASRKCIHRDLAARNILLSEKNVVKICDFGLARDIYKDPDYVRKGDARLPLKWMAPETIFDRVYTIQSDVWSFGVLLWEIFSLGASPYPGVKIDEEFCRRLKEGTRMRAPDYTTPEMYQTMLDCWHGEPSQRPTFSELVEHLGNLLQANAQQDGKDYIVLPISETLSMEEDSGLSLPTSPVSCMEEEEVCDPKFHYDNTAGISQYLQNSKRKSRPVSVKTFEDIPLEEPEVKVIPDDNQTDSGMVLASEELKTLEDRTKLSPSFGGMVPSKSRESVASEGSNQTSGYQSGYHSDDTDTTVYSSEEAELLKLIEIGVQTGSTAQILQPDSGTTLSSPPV
T3 sequence (P80192 144-412 limits assumed): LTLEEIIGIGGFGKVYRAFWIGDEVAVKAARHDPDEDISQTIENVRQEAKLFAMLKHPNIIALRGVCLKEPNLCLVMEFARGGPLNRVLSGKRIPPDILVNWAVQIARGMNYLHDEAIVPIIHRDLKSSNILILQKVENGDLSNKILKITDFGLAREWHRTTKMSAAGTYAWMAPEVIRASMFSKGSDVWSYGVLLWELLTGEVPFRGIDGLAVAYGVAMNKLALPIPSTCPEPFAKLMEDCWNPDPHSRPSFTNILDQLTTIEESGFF
T2 sequence (P04629 440-796 limits assumed): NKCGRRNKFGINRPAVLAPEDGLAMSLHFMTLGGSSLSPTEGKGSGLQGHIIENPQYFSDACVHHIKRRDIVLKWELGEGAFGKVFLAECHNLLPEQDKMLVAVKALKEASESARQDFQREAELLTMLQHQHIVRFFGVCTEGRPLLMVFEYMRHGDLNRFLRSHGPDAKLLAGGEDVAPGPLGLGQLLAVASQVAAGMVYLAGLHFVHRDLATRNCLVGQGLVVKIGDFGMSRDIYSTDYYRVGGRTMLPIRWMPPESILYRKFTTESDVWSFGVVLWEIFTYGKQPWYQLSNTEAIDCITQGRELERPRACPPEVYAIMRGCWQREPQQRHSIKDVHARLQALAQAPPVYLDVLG

SMILES | VEGFR-2 kinase % inhibition @ 1 uM [1] [%] | trkA % inhibition @ 1 uM [2] [%] | MLK-1 Kinase % inhibition @ 1 uM (baculoviral GST-MLK1KD) [%] | inhibition at 1 µM [1] [%] | inhibition at 1 µM [2] [%] | inhibition at 1 µM (baculoviral GST-MLK1KD) [%]
O=C1NN=C(c2ccoc2)C1=Cc1ccc[nH]1 [Compound 12] | 26 | 44 | 27 |  |  | 
Cc1cc(C)c(C=C2C(=O)NN=C2C2c3ccccc3Oc3ccccc32)[nH]1 [Compound 2] | 21 | 39 | −8 |  |  | 
Cn1ccc(C2=NNC(=O)C2=Cc2c[nH]c3ccc(F)cc23)c1 [Compound 32] | 47 | 8 | 5 |  |  | 
Cn1ccc(C2=NNC(=O)C2=Cc2c[nH]c3ccc(Cl)cc23)c1 [Compound 35] | 19 | 23 | 7 |  |  | 
Cc1cc(C)c(C=C2C(=O)NN=C2c2cc(C)oc2C)[nH]1 [Compound 36] | 27 | 40 | −9 |  |  | 
Cc1oc(-c2ccc(Cl)cc2)cc1C1=NNC(=O)C1=Cc1c[nH]c2ccccc12 [Compound 42] | 28 | 29 | −9 |  |  | 
N#CCCn1cc(C=C2C(=O)NN=C2c2cccs2)c2ccccc21 [Compound 66] | 32 | 32 | 11 |  |  | 
Cn1cc(C=C2C(=O)NN=C2c2ccco2)c2ccccc21 [Compound 45] | 72 | 39 | 24 |  |  | 
Cc1ccc2c(C=C3C(=O)NN=C3c3ccco3)c[nH]c2c1 [Compound 46] | 71 | 29 | 13 |  |  | 
Cc1cc(C)c(C=C2C(=O)NN=C2c2ccccn2)[nH]1 [Compound 30] | 68 | 22 | 2 |  |  | 
O=C1NN=C(c2ccco2)C1=Cc1cn(Cc2ccccc2)c2ccccc12 [Compound 69] | 5 | 35 | 21 |  |  | 
Cc1nc(C)c(C2=NNC(=O)C2=Cc2c[nH]c3ccccc23)s1 [Compound 13] | 25 | 45 | 10 |  |  | 
O=C1NN=C(c2ccco2)C1=Cc1c[nH]c2ccc(F)cc12 [Compound 48] | 58 | 47 | 2 |  |  | 
O=C1NN=C(c2ccco2)C1=Cc1c[nH]c2ccc(Cl)cc12 [Compound 49] | 50 | 56 | −10 |  |  | 
Cn1cccc1C1=NNC(=O)C1=Cc1c[nH]c2ccc(F)cc12 [Compound 56] | 8 | 48 | −22 |  |  | 
Cc1cc(C)c(C=C2C(=O)NN=C2c2cc(-c3ccc(Cl)cc3)oc2C)[nH]1 [Compound 41] | 13 | 17 | 13 |  |  | 
O=C1NN=C(c2ccoc2)C1=Cc1c[nH]c2ccccc12 [Compound 9] | 49 | 41 | 22 |  |  | 
Cc1cc(C)c(C=C2C(=O)NN=C2c2ccsc2)[nH]1 [Compound 37, 4-[(3,5-dimethylpyrrol-2-yl)methylene]-3-(3-thienyl)-2-pyrazolin-5-one] |  |  |  | 62 | 28 | 15
O=C1NN=C(c2ccoc2)C1=CC=C(c1ccccc1)c1ccccc1 [Compound 4] | 33 | 53 | 9 |  |  | 

SMILES | VEGFR-2 kinase % inhibition @ 1 uM [1] [%] | trkA % inhibition @ 1 uM [2] [%] | MLK-1 Kinase % inhibition @ 1 uM (baculoviral GST-MLK1KD) [%] | inhibition at 1 µM [1] [%] | inhibition at 1 µM [2] [%] | inhibition at 1 µM (baculoviral GST-MLK1KD) [%]
O=C1NN=C(c2ccco2)C1=Cc1cn(CCOCc2ccccc2)c2ccccc12 [Compound 71] | −1 | 15 | 9 |  |  | 
Cc1cc(C)c(C=C2C(=O)NN=C2c2cccnc2)[nH]1 [Compound 10] | 64 | 26 | 22 |  |  | 
Cc1cc(C)c(C=C2C(=O)NN=C2c2sc(C)nc2C)[nH]1 [Compound 14] | 13 | 35 | 8 |  |  | 
N#CCCn1cc(C=C2C(=O)NN=C2c2ccoc2)c2ccccc21 [Compound 65] | 43 | 22 | 10 |  |  | 
O=C1NN=C(c2cccs2)C1=Cc1c[nH]c2ccccc12 [Compound 38, 4-(indol-3-ylmethylene)-3-(2-thienyl)-2-pyrazolin-5-one] |  |  |  | 42 | 40 | 16
Cc1cc(C)c(C=C2C(=O)NN=C2c2ccoc2)[nH]1 [Compound 1] |  | 24 | 12 |  |  | 
O=C1NN=C(c2ccoc2)C1=Cc1c[nH]c2ccc(F)cc12 [Compound 19] | 44 | 45 | 4 |  |  | 
Cn1cc(C=C2C(=O)NN=C2c2cccs2)c2ccccc21 [Compound 63] | 75 | 60 | 14 |  |  | 
O=C1NN=C(c2ccoc2)C1=Cc1cn(Cc2ccccc2)c2ccccc12 [Compound 68] | 26 | 42 | 17 |  |  | 
Cc1c(I)[nH]c(C=C2C(=O)NN=C2c2ccoc2)c1I [Compound 6] | 9 | 31 | 25 |  |  | 
O=C1NN=C(c2ccoc2)C1=Cc1c[nH]c2cccc(OCc3ccccc3)c12 [Compound 18] | 12 | 70 | 14 |  |  | 
COc1ccc2[nH]cc(C=C3C(=O)NN=C3c3ccoc3)c2c1 [Compound 11] | 50 | 65 | 21 |  |  | 
O=C1NN=C(c2ccco2)C1=Cc1ncc[nH]1 [Compound 54] | 4 | 20 | −12 |  |  | 
CCc1c(C=C2C(=O)NN=C2c2ccoc2)[nH]c(C(=O)OCc2ccccc2)c1C [Compound 5] | −5 | 2 | 14 |  |  | 
Cc1ccc2c(C=C3C(=O)NN=C3c3ccn(C)c3)c[nH]c2c1 [Compound 33] | 25 | 32 | 8 |  |  | 
O=C1NN=C(c2ccoc2)C1=Cc1c[nH]c2ccc(OCc3ccccc3)cc12 [Compound 21] | 12 | 56 | 4 |  |  | 
Cc1cc(C)c(C=C2C(=O)NN=C2c2cnccn2)[nH]1 [Compound 74, 4-[(3,5-dimethylpyrrol-2-yl)methylene]-3-pyrazin-2-yl-2-pyrazolin-5-one] |  |  |  |  | 53 | 44
Cc1cc(C)c(C=C2C(=O)NN=C2c2nccs2)[nH]1 [Compound 26, 4-[(3,5-dimethylpyrrol-2-yl)methylene]-3-(1,3-thiazol-2-yl)-2 pyrazolin-5-one] |  |  |  |  | 42 | 10
Cn1cc(C=C2C(=O)NN=C2c2nccs2)c2ccccc21 [Compound 60] |  | 71 | 37 |  |  | 
